Laboratory results taken from paper PMC5127184 (Scientific Reports, 2016).
Entries after “also recorded” stand apart in the source; their conditions may differ. Ends that are not written are not given here.

Legend:
DPP-4 [1] = assay: Cleavage by purified human DPP-4 (RP-HPLC); assay type: in vitro ADME; conditions: human, isolated enzyme dpp iv, 30 μM peptide, DPP-4 3 U/L, 0.1 M sodium phosphate pH 7.4, 37 °C, UV 215.8 nm, n = 3, read-out: Time to 50% reduction of intact peptide with purified human DPP-4
Experimental: (§1) Samples were analysed by RP-HPLC with solvent A (0.1% TFA in water) and B (80% acetonitrile in 0.1% aqueous TFA) at a flow rate of 0.5 ml/min.

pGLP-1R [2] = assay: Radioligand competition binding, FlpInCHO-pGLP-1R cells; design: species or system platypus; conditions: competition with 125I-hGLP-1 (7–36), 0.15 nM, FlpInCHO cells stably expressing pGLP-1R, overnight 4 °C; means ± S.E.M. of two or three experiments in triplicate
Experimental: (§2) Human and pGLP-1R cDNAs were isogenically integrated into FlpIn-Chinese hamster ovary (FlpInCHO) cells (Invitrogen) and selection of receptor-expressing cells accomplished by treatment with 600 μg/ml hygromycin B as described previously. Transfected and parental FlpInCHO cells were maintained in DMEM supplemented with 10% heat-inactivated FBS and incubated in a humidified environment at 37 °C in 5% CO2.
Cells were then incubated overnight at 4 °C, followed by three washes with ice-cold 1 × PBS to remove unbound radioligand. Cells were then lysed in 0.1 M NaOH, and radioactivity determined by γ-counting as described previously.
(§3) All data were analysed in Prism 6.0c (GraphPad Software Inc., San Diego, CA). Concentration response signalling data were analysed using a three-parameter logistic equation as described previously. Signalling bias was analysed as described. Briefly, quantification of signal bias was performed using pharmacologically derived parameters of agonist affinity (Ka) and efficacy (tau) for each ligand in each of the three signalling pathways (cAMP accumulation, ERK1/2 phosphorylation, Intracellular Ca^2+ mobilisation). […] Data are presented on a log scale.

pGLP-1R [3] = assay: Intracellular Ca2+ mobilization, FlpInCHO-pGLP-1R cells; assay type: cell-based, platypus; conditions: normalized to 100 μM ATP, means ± S.E.M. of at least three experiments in triplicate
Experimental: as §2
(§4) FlpInCHO-hGLP-1R and FlpInCHO-pGLP-1R cells were seeded at a density of 3 × 10^4 cells/well into 96-well culture plates and incubated overnight at 37 °C in 5% CO2 and receptor-mediated intracellular Ca^2+ mobilization determined as described previously.
as §3

INS-1 (832/13) cells = assay: cAMP accumulation, INS-1 (832/13) cells; assay type: cell-based; conditions: normalized to forskolin response, means ± S.E.M. of at least three experiments in triplicate
echidna serum = conditions: 37 °C, up to seven hours
DPP-4 [4] = assay: DPP-4 (3 U/L) in sodium phosphate buffer (0.1 M, pH 7.4); conditions: human, 37 °C, up to 120 min
[5] = albumin-depleted human serum (purified by DEAE Affi-Gel Blue Cartridges); conditions: 37 °C, up to 11 h
[6] = purified human serum in the presence of DPP-4 inhibitor P32/98; conditions: 37 °C, up to 11 h
[7] = 12.5% human serum in 100 mM sodium phosphate buffer (PH 7.4), 150 mM NaCl, 0.2% Tween-20; conditions: 37 °C, up to 4 h
[8] = 12.5% echidna serum in 100 mM sodium phosphate buffer (PH 7.4), 150 mM NaCl, 0.2% Tween-20; conditions: 37 °C, up to 4 h
[9] = 12.5% platypus serum in 100 mM sodium phosphate buffer (PH 7.4), 150 mM NaCl, 0.2% Tween-20; conditions: 37 °C, up to 4 h
purified human DPP-4 = purified human DPP-4 (Homo sapiens, UniProt P27487); assay: Cleavage by purified human DPP-4 (RP-HPLC); assay type: in vitro ADME; conditions: 30 μM peptide, DPP-4 3 U/L, 0.1 M sodium phosphate pH 7.4, 37 °C, 0-120 min, n = 3
Experimental: as §1

in vitro [10] = assay type: in vitro ADME, human; conditions: 7 μM peptide, 37 °C; for Stability in albumin-depleted human serum (in words): 0-11 h, RP-HPLC, n = 3; for remaining at 11 h, 7 μM: human, 11 h incubation, serum purified by DEAE Affi-Gel Blue (albumin-depleted), RP-HPLC area under the curve of intact peptide, means ± S.E.M. of three experiments in triplicate
Experimental: (§5) Aliquots were analysed by RP-HPLC. Human serum was from the author Briony Forbes and provided with informed consent. We confirm that all methods for these studies were carried out in accordance with relevant guidelines and regulations, and all experimental protocols satisfy the Adelaide University Human Research Ethics Committee criteria as being “negligible risk research”.

in vitro [11] = assay type: in vitro ADME, platypus; conditions: 37 °C; for Effect of DPP-4 inhibitor P32/98 on degradation in platypus serum (in words): 100 μM P32/98, 7 μM peptide, RP-HPLC; for remaining at 11 h, 7 μM: platypus, 11 h incubation, 7 μM peptide, serum purified by DEAE Affi-Gel Blue, RP-HPLC area under the curve of intact peptide, means ± S.E.M. of three experiments in triplicate
Experimental: as §5

in vitro [12] = assay type: in vitro ADME, echidna; conditions: 7 μM peptide, 37 °C; for Uncleaved peptide remaining after 11 hours in echidna serum: RP-HPLC, sentence covers platypus and echidna sera; for remaining at 11 h, 7 μM: echidna, 11 h incubation, serum purified by DEAE Affi-Gel Blue, RP-HPLC area under the curve of intact peptide, means ± S.E.M. of three experiments in triplicate
Experimental: as §5

hGLP-1R [13] = target: T1, hGLP-1R (Homo sapiens, UniProt P43220); assay: Radioligand competition binding, FlpInCHO-hGLP-1R cells
T1 construct: expressed in transfected cells
Experimental: as §2, with “CO2. INS-1(832/13) cells were cultured in RPMI-1640 medium supplemented with 10 mM HEPES, 10% heat-inactivated FBS, 2 mM L-glutamine, 1 mM sodium pyruvate, 0.05 mM β-mercaptoethanol, 100 iU/ml penicillin, and 100 µg/ml streptomycin at 37 °C in a humidified 5% CO2 atmosphere.” for “CO2.”
FlpInCHO-hGLP-1R and FlpInCHO-pGLP-1R cells were seeded at a density of 3 × 10^4 cells/well and INS-1(832/13) cells at 10^5 cells/well into 96-well culture plates and incubated overnight at 37 °C in 5% CO2. […] Cells were then lysed in 0.1 M NaOH, and radioactivity determined by γ-counting as described previously.
All data were analysed in Prism 6.0c (GraphPad Software Inc., San Diego, CA). Concentration response signalling data were analysed using a three-parameter logistic equation as described previously. Signalling bias was analysed as described. […] The transduction ratio (tau/Ka) was extracted from standard concentration-response data that was analysed with the operational model of agonism (Kenakin & Christopoulos 2012). […]

hGLP-1R [14] = target: T1, hGLP-1R; assay: cAMP accumulation, FlpInCHO-hGLP-1R cells; assay type: cell-based
Experimental: as §2, with “CO2. INS-1(832/13) cells were cultured in RPMI-1640 medium supplemented with 10 mM HEPES, 10% heat-inactivated FBS, 2 mM L-glutamine, 1 mM sodium pyruvate, 0.05 mM β-mercaptoethanol, 100 iU/ml penicillin, and 100 µg/ml streptomycin at 37 °C in a humidified 5% CO2 atmosphere. […]” for “CO2.”
All data were analysed in Prism 6.0c (GraphPad Software Inc., San Diego, CA). Concentration response signalling data were analysed using a three-parameter logistic equation as described previously. Signalling bias was analysed as described. Briefly, quantification of signal bias was performed using pharmacologically derived parameters of agonist affinity (Ka) and efficacy (tau) for each ligand in each of the three signalling pathways (cAMP accumulation, ERK1/2 phosphorylation, Intracellular Ca^2+ mobilisation). The transduction ratio (tau/Ka) was extracted from standard concentration-response data that was analysed with the operational model of agonism (Kenakin & Christopoulos 2012). […]

hGLP-1R [15] = target: T1, hGLP-1R; assay: Intracellular Ca2+ mobilization, FlpInCHO-hGLP-1R cells; assay type: cell-based
Experimental: as §2, §4, §3

hGLP-1R [16] = target: T1, hGLP-1R; assay: ERK1/2 phosphorylation, FlpInCHO-hGLP-1R cells; assay type: cell-based
Experimental: as §2
FlpInCHO-hGLP-1R and FlpInCHO-pGLP-1R cells were seeded at a density of 3 × 10^4 cells/well into 96-well culture plates and incubated overnight at 37 °C in 5% CO2. Receptor-mediated ERK1/2 phosphorylation was determined as previously described.
as §3

T1 sequence (P43220 24-463): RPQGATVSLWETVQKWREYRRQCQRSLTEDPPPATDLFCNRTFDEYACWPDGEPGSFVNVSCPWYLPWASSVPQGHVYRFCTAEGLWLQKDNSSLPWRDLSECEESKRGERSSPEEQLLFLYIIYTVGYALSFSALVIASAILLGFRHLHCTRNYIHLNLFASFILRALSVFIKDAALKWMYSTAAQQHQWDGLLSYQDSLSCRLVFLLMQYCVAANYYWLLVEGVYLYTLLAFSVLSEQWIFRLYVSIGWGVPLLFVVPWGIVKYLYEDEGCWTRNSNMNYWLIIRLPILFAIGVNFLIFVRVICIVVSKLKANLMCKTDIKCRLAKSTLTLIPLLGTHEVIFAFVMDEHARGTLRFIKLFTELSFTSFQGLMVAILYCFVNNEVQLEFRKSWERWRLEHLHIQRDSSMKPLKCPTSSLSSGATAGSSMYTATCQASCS
purified human DPP-4, sequence (P27487 whole entry): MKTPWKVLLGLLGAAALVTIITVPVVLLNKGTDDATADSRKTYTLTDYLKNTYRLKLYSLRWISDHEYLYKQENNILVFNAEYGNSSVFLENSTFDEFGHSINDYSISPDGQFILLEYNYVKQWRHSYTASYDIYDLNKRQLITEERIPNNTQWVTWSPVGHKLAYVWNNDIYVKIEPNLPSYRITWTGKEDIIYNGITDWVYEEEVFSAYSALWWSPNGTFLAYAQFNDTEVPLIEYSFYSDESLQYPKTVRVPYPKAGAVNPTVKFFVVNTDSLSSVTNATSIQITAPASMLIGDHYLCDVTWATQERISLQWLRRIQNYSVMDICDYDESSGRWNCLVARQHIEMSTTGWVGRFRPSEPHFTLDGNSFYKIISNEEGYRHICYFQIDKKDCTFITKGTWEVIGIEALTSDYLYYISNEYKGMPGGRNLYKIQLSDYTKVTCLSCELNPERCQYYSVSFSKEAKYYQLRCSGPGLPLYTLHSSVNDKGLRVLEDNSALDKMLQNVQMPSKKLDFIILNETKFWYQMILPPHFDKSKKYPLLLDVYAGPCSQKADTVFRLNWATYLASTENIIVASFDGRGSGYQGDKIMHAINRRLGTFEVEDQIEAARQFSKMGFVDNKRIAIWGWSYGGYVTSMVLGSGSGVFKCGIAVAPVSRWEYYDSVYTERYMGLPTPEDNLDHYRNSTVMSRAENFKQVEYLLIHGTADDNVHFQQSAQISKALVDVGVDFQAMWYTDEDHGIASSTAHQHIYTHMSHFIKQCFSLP

CC[C@H](C)[C@H](NC(=O)[C@H](Cc1ccccc1)NC(=O)[C@H](CCC(=O)O)NC(=O)[C@H](CCCCN)NC(=O)[C@H](C)NC(=O)[C@H](C)NC(=O)[C@H](CCC(N)=O)NC(=O)CNC(=O)[C@H](CCC(=O)O)NC(=O)[C@H](CC(C)C)NC(=O)[C@H](Cc1ccc(O)cc1)NC(=O)[C@H](CO)NC(=O)[C@H](CO)NC(=O)[C@@H](NC(=O)[C@H](CC(=O)O)NC(=O)[C@H](CO)NC(=O)[C@@H](NC(=O)[C@H](Cc1ccccc1)NC(=O)[C@@H](NC(=O)CNC(=O)[C@H](CCC(=O)O)NC(=O)[C@H](C)NC(=O)[C@@H](N)Cc1c[nH]cn1)[C@@H](C)O)[C@@H](C)O)C(C)C)C(=O)N[C@@H](C)C(=O)N[C@@H](Cc1c[nH]c2ccccc12)C(=O)N[C@@H](CC(C)C)C(=O)N[C@H](C(=O)N[C@@H](CCCCN)C(=O)NCC(=O)N[C@@H](CCCNC(=N)N)C(=O)NCC(=O)O)C(C)C [hGLP-1]
half-life at 30 μM (DPP-4 [1]): ≤ 1 h | pIC50 pGLP-1R CHO (pGLP-1R [2]): 8.9 ± 0.1 | pEC50 pGLP-1R CHO Ca2+ mobilization (pGLP-1R [3]): 8.3 ± 0.1^& | pEC50 INS-1 (832/13) cAMP accumulation (INS-1 (832/13) cells): 9.6 ± 0.3

HSEGTFTNDVTRLLEEKATSEFIAWLLKGLE
cleaved bond (echidna serum): R12-L13; also recorded: L14-E15; also recorded: E16-K17; also recorded: T19-S20; also recorded: L26-L27; also recorded: K28-G29 | not cleaved (DPP-4 [4]): not degraded by human DPP-4 | not cleaved [5]: 96.4 ± 2.0% after 11 h

HFDGVYTDYFSRYLEEKATNEFIDWLLKGQE
cleaved bond (echidna serum): T19-N20; also recorded: R12-Y13; also recorded: Y13-L14 | not cleaved (DPP-4 [4]): not degraded by human DPP-4 | not cleaved [5]: 99.3 ± 1.8% after 11 h

HAEGTFTSDVSSYLEGQAAKEFIAWLVKGRG
fragment found (echidna serum): hGLP-1 (1-22) HAEGTFTSDVSSYLEGQAAKEF | not cleaved [6]: remained intact (0% degraded)

H-Ala-Pro-p-nitroanilide
cleaved bond [7]: Pro-p-nitroanilide | cleaved bond [8]: Pro-p-nitroanilide | cleaved bond [9]: Pro-p-nitroanilide

HFDGVYTDYFSRYLEEKATNEFIDWLLKGQE [eGLP-1]
Degradation by purified human DPP-4 (in words) (purified human DPP-4): not degraded | Stability in albumin-depleted human serum (in words) (in vitro [10]): remained stable | remaining at 11 h, 7 μM (in vitro [10]): 99.3 ± 1.8% | Effect of DPP-4 inhibitor P32/98 on degradation in platypus serum (in words) (in vitro [11]): did not alter the cleavage pattern | remaining at 11 h, 7 μM (in vitro [11]): 48.3 ± 3.5% | Uncleaved peptide remaining after 11 hours in echidna serum (in vitro [12]): less than 50% | remaining at 11 h, 7 μM (in vitro [12]): 42.4 ± 4.3% | IC50 (hGLP-1R [13]): 25.1 nM | EC50 (hGLP-1R [14]): 126 nM | EC50 (hGLP-1R [15]): 10000 nM | EC50 (hGLP-1R [16]): 794 nM

HSEGTFTNDVTRLLEEKATSEFIAWLLKGLE [pGLP-1]
Degradation by purified human DPP-4 (in words) (purified human DPP-4): not degraded | Stability in albumin-depleted human serum (in words) (in vitro [10]): remained stable | remaining at 11 h, 7 μM (in vitro [10]): 96.4 ± 2% | Effect of DPP-4 inhibitor P32/98 on degradation in platypus serum (in words) (in vitro [11]): did not alter the cleavage pattern | remaining at 11 h, 7 μM (in vitro [11]): 55.1 ± 3.5% | Uncleaved peptide remaining after 11 hours in echidna serum (in vitro [12]): less than 50% | remaining at 11 h, 7 μM (in vitro [12]): 49.4 ± 2.9% | IC50 (hGLP-1R [13]): 12.6 nM | EC50 (hGLP-1R [14]): 2 nM | EC50 (hGLP-1R [15]): 316 nM | EC50 (hGLP-1R [16]): 12.6 nM
